Results: patent US4292428A, “Cephalosporin derivatives” (Hoffmann-La Roche Inc., priority 1978, dated 1981)
Read-outs that look alike come from different tables or passages of the source.

How the values were obtained:
[1] = Toxicity (mice, 24 hour value); details: mouse, in vivo, po
Experimental: |Toxicity: (mice, 24 hour value)

Escherichia coli = test: Activity in vivo: mice infected intraperitoneally with Escherichia coli, survival on the 4th day; details: 96 h, survivors on 4th day, by interpolation, read-out: CD50 (dosage at which 50% of the mice survive)
Experimental: Groups of 5 mice are infected intraperitoneally with an aqueous suspension of Escherichia coli. The derivative to be tested is administered orally or subcutaneously 1, 2.5 and 4 hours after the infection. The number of surviving mice is determined on the 4th day. Various dosages of the derivative are administered and the dosage at which 50% of the mice survive (CD50, mg/kg) is determined by interpolation.

[2] = oral, 1, 2.5 and 4 hours after intraperitoneal infection
[3] = sc, subcutaneous, 1, 2.5 and 4 hours after intraperitoneal infection

| Structure (SMILES) | LD50 at 24 h [1] [mg/kg] | ED50 (Escherichia coli; [2]) [mg/kg] | ED50 (Escherichia coli; [3]) [mg/kg] |
| --- | --- | --- | --- |
| CON=C(C(=O)NC1C(=O)N2C(C(=O)OCOC(=O)C(C)(C)C)=C(CSc3nc(=O)c(OCOC(=O)C(C)(C)C)nn3C)CSC12)c1ccco1 [Derivative B, Methylene-(6R,7R)-3-{[[2,5-dihydro-2-methyl-5-oxo-6-[(pivaloyloxy)methoxy]-as-triazin-3-yl]thio]methyl}-7-[2-(2-furyl)-2-(methoxyimino)acetamido]-8-oxo-5-thia-1-azabicyclo[4.2.0]oct-2-ene-2-carboxylate pivalate (Z-isomer)] | 1250 to 2500 | 0.03 | 0.02 |
| CON=C(C(=O)NC1C(=O)N2C(C(=O)OCOC(=O)C(C)(C)C)=C(CSc3n[nH]c(=O)c(=O)n3C)CSC12)c1ccco1 [Derivative A, Methylene-(6R,7R)-7-[2-(2-furyl)-2-(methoxyimino)-acetamido]-8-oxo-3-[[(1,4,5,6-tetrahydro-4-methyl-5,6-dioxo-as-triazin-3-yl)thio]methyl]-5-thia-1-azabicyclo-[4.2.0]oct-2-ene-2-carboxylate pivalate (Z-isomer)] | 2500 to 5000 | 0.05 | 0.02 |
